Legend:
[1] = molecular target: T1, Kappa-type opioid receptor (Homo sapiens, UniProt P41145); assay: Agonist activity at human recombinant KOR expressed in CHO cells assessed as cAMP accumulation; format: functional, cell-based
[2] = molecular target: T2, Delta-type opioid receptor (Homo sapiens, UniProt P41143); assay: Agonist activity at human recombinant DOR expressed in CHO cells assessed as cAMP accumulation; format: functional, cell-based
[3] = molecular target: T2, Delta-type opioid receptor; assay: Displacement of [3H]DPDPE from human recombinant DOR expressed in CHO cell membranes
[4] = molecular target: T1, Kappa-type opioid receptor; assay: Agonist activity at human recombinant KOR expressed in CHO cells assessed as cAMP accumulation relative to U-69,593; format: functional, cell-based
[5] = molecular target: T1, Kappa-type opioid receptor; assay: Displacement of [3H]U-69,593 from human recombinant KOR expressed in CHO cell membranes
Mu-type opioid receptor [6] = molecular target: T3, Mu-type opioid receptor (Homo sapiens, UniProt P35372); assay: Agonist activity at human recombinant MOR expressed in CHO cells assessed as cAMP accumulation at 10 uM relative to DAMGO; format: functional, cell-based
T3 sequence (P35372 whole entry): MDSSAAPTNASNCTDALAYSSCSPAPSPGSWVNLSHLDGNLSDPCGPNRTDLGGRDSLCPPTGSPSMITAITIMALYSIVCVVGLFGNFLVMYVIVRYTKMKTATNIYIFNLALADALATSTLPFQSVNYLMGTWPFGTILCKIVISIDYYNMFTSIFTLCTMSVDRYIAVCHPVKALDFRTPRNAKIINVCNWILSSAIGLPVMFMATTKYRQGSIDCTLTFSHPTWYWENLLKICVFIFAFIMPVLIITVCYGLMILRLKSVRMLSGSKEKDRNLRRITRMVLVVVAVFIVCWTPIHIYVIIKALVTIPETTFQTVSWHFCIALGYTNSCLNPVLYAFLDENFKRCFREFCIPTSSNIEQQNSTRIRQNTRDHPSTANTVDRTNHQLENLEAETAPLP

Homo sapiens [7] = species on record: Homo sapiens; assay: Selectivity index, ratio of Ki for human recombinant MOR expressed in CHO cell membranes to Ki for human recombinant DOR expressed in CHO cell membranes; format: cell-based
Homo sapiens [8] = species on record: Homo sapiens; assay: Selectivity index, ratio of Ki for human recombinant KOR expressed in CHO cell membranes to Ki for human recombinant DOR expressed in CHO cell membranes; format: cell-based
[9] = molecular target: T2, Delta-type opioid receptor; assay: Agonist activity at human recombinant DOR expressed in CHO cells assessed as cAMP accumulation relative to SNC80; format: functional, cell-based
Mu-type opioid receptor [10] = molecular target: T3, Mu-type opioid receptor; assay: Displacement of [3H]DAMGO from human recombinant MOR expressed in CHO cell membranes
Mu-type opioid receptor [11] = molecular target: T3, Mu-type opioid receptor; assay: Agonist activity at human recombinant MOR expressed in CHO cells assessed as cAMP accumulation relative to DAMGO; format: functional, cell-based
Mu-type opioid receptor [12] = molecular target: T3, Mu-type opioid receptor; assay: Agonist activity at human recombinant MOR expressed in CHO cells assessed as cAMP accumulation; format: functional, cell-based
[13] = molecular target: T1, Kappa-type opioid receptor; assay: Agonist activity at human recombinant KOR expressed in CHO cells assessed as cAMP accumulation at 10 uM relative to U-69,593; format: functional, cell-based
[14] = Apparent permeability at 10 uM incubated for 60 mins by RBT-24 kit; format: physicochemical; conditions: rat, not told
Mus musculus = assay: Antinociceptive activity in sc dosed ICR mouse assessed as reduction in acetic acid-induced writhing response administered 20 mins before acetic acid injection and measured for 20 mins post acetic acid injection; format: functional

T2 sequence (P41143 whole entry): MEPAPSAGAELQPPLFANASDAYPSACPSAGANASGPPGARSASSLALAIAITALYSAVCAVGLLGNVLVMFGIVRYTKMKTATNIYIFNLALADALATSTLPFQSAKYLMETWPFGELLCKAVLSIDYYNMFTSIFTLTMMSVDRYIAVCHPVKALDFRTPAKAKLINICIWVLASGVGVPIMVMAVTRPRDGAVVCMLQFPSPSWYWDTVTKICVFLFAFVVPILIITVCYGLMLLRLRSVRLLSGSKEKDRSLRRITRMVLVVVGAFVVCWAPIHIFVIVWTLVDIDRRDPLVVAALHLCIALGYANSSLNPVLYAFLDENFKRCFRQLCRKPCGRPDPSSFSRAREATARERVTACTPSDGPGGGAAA
T1 sequence (P41145 whole entry): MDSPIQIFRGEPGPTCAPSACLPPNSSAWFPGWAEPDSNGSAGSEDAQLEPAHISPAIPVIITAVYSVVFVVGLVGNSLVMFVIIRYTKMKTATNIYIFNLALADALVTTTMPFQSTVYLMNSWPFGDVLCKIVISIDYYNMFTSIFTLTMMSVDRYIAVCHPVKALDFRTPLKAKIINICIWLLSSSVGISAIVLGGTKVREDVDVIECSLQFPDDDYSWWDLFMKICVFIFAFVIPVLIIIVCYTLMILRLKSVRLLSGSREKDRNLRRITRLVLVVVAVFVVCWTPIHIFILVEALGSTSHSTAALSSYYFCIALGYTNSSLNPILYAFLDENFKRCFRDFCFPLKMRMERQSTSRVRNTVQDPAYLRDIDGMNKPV

Row | Compound | EC50 [1] | EC50 [2] | Ki [3] | Emax [4] | Ki [5] | Emax (Mu-type opioid receptor [6]) | Ratio Ki (Homo sapiens [7]) | Ratio Ki (Homo sapiens [8]) | Emax [9] | Ki (Mu-type opioid receptor [10]) | Emax (Mu-type opioid receptor [11]) | EC50 (Mu-type opioid receptor [12]) | Emax [13] | Papp at 1 h, 10 µM [14] | ED50 (Mus musculus)
1 | Oc1ccc2c(c1)C13CCN(CC4CC4)C(C2)C12CCC1C3[C@@H](CN1Cc1ccccc1)C2 (stereo partly drawn) | 4500 pM | 420 pM | 585 pM | 36% | 4260 pM | 18% | 5.9 | 7.3 | 90% | 3440 pM | – | – | – | – | –
2 | Oc1ccc2c(c1)C13CCN(CC4CC4)C(C2)C12CCC1C3[C@@H](CN1c1cnccn1)C2 (stereo partly drawn) | 200 pM | 430 pM | 356 pM | 24% | 479 pM | 5.7% | 2.3 | 1.3 | 71% | 813 pM | – | – | – | – | –
3 | Oc1ccc2c(c1)C13CCN(CC4CC4)C(C2)C12CCC1C3[C@@H](CN1CC1CCCCC1)C2 (stereo partly drawn) | 5700 pM | 1700 pM | 1460 pM | 45% | 781 pM | – | 1.7 | 0.5 | 82% | 2500 pM | 17% | 21000 pM | – | – | –
4 | O=C(Nc1ccccc1)N1C[C@H]2CC34CCC1C2C31CCN(CC2CC2)C4Cc2ccc(O)cc21 (stereo partly drawn) | 300 pM | 1500 pM | 265 pM | 44% | 336 pM | 6.2% | 2.1 | 1.3 | 42% | 545 pM | – | – | – | – | –
5 | O=C(c1ccoc1)N1C[C@H]2CC34CCC1C2C31CCN(CC2CC2)C4Cc2ccc(O)cc21 (stereo partly drawn) | 1400 pM | 230 pM | 313 pM | 33% | 221 pM | – | 1.5 | 0.7 | 93% | 455 pM | 50% | 155000 pM | – | – | –
6 | O=C(c1ccccn1)N1C[C@H]2CC34CCC1C2C31CCN(CC2CC2)C4Cc2ccc(O)cc21 (stereo partly drawn) | – | 350 pM | 458 pM | – | 564 pM | 6.5% | 1.6 | 1.2 | 85% | 726 pM | – | – | 18% | – | –
7 | Oc1ccc2c(c1)C13CCN(CC4CC4)C(C2)C12CCC1C3[C@@H](CN1c1ccccc1)C2 (stereo partly drawn) | 8100 pM | 4700 pM | 1260 pM | 54% | 2430 pM | – | 0.8 | 1.9 | 82% | 953 pM | 50% | 10000 pM | – | – | –
8 | O=C(Oc1ccccc1)N1C[C@H]2CC34CCC1C2C31CCN(CC2CC2)C4Cc2ccc(O)cc21 (stereo partly drawn) | 2500 pM | 1300 pM | 833 pM | 27% | 522 pM | 5.6% | 1 | 0.6 | 92% | 826 pM | – | – | – | – | –
9 | O=C(c1ccccc1)N1C[C@H]2CC34CCC1C2C31CCN(CC2CC2)C4Cc2ccc(O)cc21 (stereo partly drawn) | – | 310 pM | 211 pM | – | 362 pM | 4.7% | 2.7 | 1.7 | 93% | 578 pM | – | – | 5.5% | 18.5 ×10⁻⁶ cm/s | 1.15 mg/kg

Source: ChEMBL document CHEMBL4033739, “Design and synthesis of novel δ opioid receptor agonists with an azatricyclodecane skeleton for improving blood-brain barrier penetration” (Bioorg Med Chem Lett, 2017)
